Holding throughout (assay type): cell-based
In one experiment the test system is H. flu.
A further experiment deals with S. pneumo. As to the kind of experiment: MIC values, S. pneumo. (Tables 1-4).
In another experiment the test system is E. coli. The experiment in a line: MIC values, E. coli (Tables 1-4).
The subject of the next experiment is E. faecalis. The experiment in a line: MIC values, E. faecalis (Tables 1-4).
In the next experiment the test system is S. aureus. The experiment in a line: MIC values, S. aureus (Tables 1-4).

The structures appear in SMILES notation. ≈ marks a conversion by molar mass, not a printed value.

Experimental findings from patent US20070142392A1, “Uses of rifamycins” (ActivBiotics, Inc., priority 2005, published 2007) are described below.

Turning to `COC1C=COC2(C)Oc3c(C)c(O)c4c(=O)c(c5oc6cc(N7CCN8CCCC8C7)cc(O)c6nc-5c4c3C2=O)NC(=O)C(C)=CC=CC(C)C(O)C(C)C(O)C(C)C(O)C1C` (stereo not shown) [Compound 88], in the experiment on H. flu, the “MIC H. flu” value was 250 ng/mL (≈ 283 nM). For the same molecule, the “MIC S. pneumo.” value in the experiment on S. pneumo. is 0.25 ng/mL (≈ 0.283 nM). The “MIC E. coli” value against E. coli is 8000 ng/mL (≈ 9060 nM). Further, the “MIC E. faecalis” value with E. faecalis was determined as 30 ng/mL (≈ 34 nM). For the same molecule, the “MIC S. aureus” value against S. aureus is 4 ng/mL (≈ 4.53 nM).

As to `CCNC(=O)NC1CCN(c2cc(O)c3nc4c5c6c7c(C)c(O)c5c(=O)c(c-4oc3c2)NC(=O)/C(C)=C\C=C\[C@H](C)[C@H](O)[C@@H](C)[C@@H](O)[C@@H](C)[C@H](OC(C)=O)[C@H](C)[C@@H](OC)/C=C/O[C@@](C)(O7)C6=O)CC1` [Compound 34], the “MIC H. flu” value against H. flu is 500 ng/mL (≈ 515 nM). Further, the “MIC S. pneumo.” value against S. pneumo. turned out to be 1 ng/mL (≈ 1.03 nM). The “MIC E. coli” value with E. coli came out at 8000 ng/mL (≈ 8250 nM). Also, the “MIC E. faecalis” value with E. faecalis came out at 2000 ng/mL (≈ 2060 nM). Also, in the experiment with S. aureus, the “MIC S. aureus” value is 30 ng/mL (≈ 30.9 nM).

For `CO[C@H]1/C=C/O[C@@]2(C)Oc3c(C)c(O)c4c(=O)c(c5oc6cc(N7CC8CCC(C7)N8)cc(O)c6nc-5c4c3C2=O)NC(=O)/C(C)=C\C=C\[C@H](C)[C@H](O)[C@@H](C)[C@@H](O)[C@@H](C)[C@H](OC(C)=O)[C@@H]1C` [Compound 10], the “MIC H. flu” value with H. flu came to 2000 ng/mL (≈ 2200 nM). Moreover, in the experiment on S. pneumo., the “MIC S. pneumo.” value stood at 0.12 ng/mL (≈ 0.132 nM). Further, the “MIC E. coli” value in the experiment with E. coli is above 8000 ng/mL. Moreover, the “MIC E. faecalis” value against E. faecalis is 1000 ng/mL (≈ 1100 nM). Moreover, the “MIC S. aureus” value in the experiment on S. aureus stood at 8 ng/mL (≈ 8.78 nM).

As for `CO[C@H]1/C=C/O[C@@]2(C)Oc3c(C)c(O)c4c(=O)c(c5oc6cc(N7CC[C@@H](N(C)C)C7)cc(O)c6nc-5c4c3C2=O)NC(=O)/C(C)=C\C=C\[C@H](C)[C@H](O)[C@@H](C)[C@@H](O)[C@@H](C)[C@H](OC(C)=O)[C@@H]1C` [Compound 75], in the experiment on H. flu, the “MIC H. flu” value amounted to 250 ng/mL (≈ 274 nM). The “MIC S. pneumo.” value in the experiment with S. pneumo. was determined as 0.12 ng/mL (≈ 0.131 nM). The “MIC E. coli” value in the experiment on E. coli was 4000 ng/mL (≈ 4380 nM). Further, in the experiment with E. faecalis, the “MIC E. faecalis” value worked out at 120 ng/mL (≈ 131 nM). The “MIC S. aureus” value in the experiment on S. aureus came to 2 ng/mL (≈ 2.19 nM).

Turning to `COC1C=COC2(C)Oc3c(C)c(O)c4c(=O)c(c5sc6cc(N7CCN8CCCC8C7)ccc6nc-5c4c3C2=O)NC(=O)C(C)=CC=CC(C)C(O)C(C)C(O)C(C)C(OC(C)=O)C1C` (stereo not shown) [Compound 76], the “MIC H. flu” value with H. flu is 250 ng/mL (≈ 270 nM). The “MIC S. pneumo.” value in the experiment with S. pneumo. is 0.25 ng/mL (≈ 0.27 nM). Moreover, the “MIC E. coli” value against E. coli turned out to be 4000 ng/mL (≈ 4320 nM). Moreover, the “MIC E. faecalis” value in the experiment on E. faecalis is 500 ng/mL (≈ 540 nM). Moreover, the “MIC S. aureus” value against S. aureus was 8 ng/mL (≈ 8.65 nM).

As for `CO[C@H]1/C=C/O[C@@]2(C)Oc3c(C)c(O)c4c(=O)c(c5oc6cc(N7CCC(N)CC7)cc(O)c6nc-5c4c3C2=O)NC(=O)/C(C)=C\C=C\[C@H](C)[C@H](O)[C@@H](C)[C@@H](O)[C@@H](C)[C@H](OC(C)=O)[C@@H]1C` [Compound 33], the “MIC H. flu” value against H. flu came to 1000 ng/mL (≈ 1110 nM). In addition, the “MIC S. pneumo.” value with S. pneumo. turned out to be 0.06 ng/mL (≈ 0.0667 nM). The “MIC E. coli” value in the experiment on E. coli was above 8000 ng/mL. Also, in the experiment on E. faecalis, the “MIC E. faecalis” value was found to be 1000 ng/mL (≈ 1110 nM). In addition, the “MIC S. aureus” value against S. aureus amounted to 8 ng/mL (≈ 8.9 nM).

For the molecule `CO[C@H]1/C=C/O[C@@]2(C)Oc3c(C)c(O)c4c(=O)c(c5oc6cc(N7C[C@@H]8CCCN(C)[C@@H]8C7)cc(O)c6nc-5c4c3C2=O)NC(=O)/C(C)=C\C=C\[C@H](C)[C@H](O)[C@@H](C)[C@@H](O)[C@@H](C)[C@H](OC(C)=O)[C@@H]1C` [Compound 58], in the experiment on H. flu, the “MIC H. flu” value amounted to 250 ng/mL (≈ 266 nM). The “MIC S. pneumo.” value in the experiment on S. pneumo. stood at 4 ng/mL (≈ 4.26 nM). Also, the “MIC E. coli” value against E. coli is above 8000 ng/mL. In addition, the “MIC E. faecalis” value against E. faecalis was 1000 ng/mL (≈ 1060 nM). Besides, the “MIC S. aureus” value against S. aureus stood at 30 ng/mL (≈ 31.9 nM).

As to `CO[C@H]1/C=C/O[C@@]2(C)Oc3c(C)c(O)c4c(=O)c(c5sc6cc(N7CCC(N(C)C)CC7)ccc6nc-5c4c3C2=O)NC(=O)/C(C)=C\C=C\[C@H](C)[C@H](O)[C@@H](C)[C@@H](O)[C@@H](C)[C@H](OC(C)=O)[C@@H]1C` [Compound 69], the “MIC H. flu” value with H. flu amounted to 500 ng/mL (≈ 539 nM). Moreover, in the experiment with S. pneumo., the “MIC S. pneumo.” value stood at 0.25 ng/mL (≈ 0.27 nM). Further, the “MIC E. coli” value against E. coli was 4000 ng/mL (≈ 4310 nM). The “MIC E. faecalis” value in the experiment with E. faecalis came to 500 ng/mL (≈ 539 nM). Besides, the “MIC S. aureus” value with S. aureus was 15 ng/mL (≈ 16.2 nM).

With `CO[C@H]1/C=C/O[C@@]2(C)Oc3c(C)c(O)c4c(=O)c(c5oc6cc(N7CCCC7)c(C7CCCCC7)cc6nc-5c4c3C2=O)NC(=O)/C(C)=C\C=C\[C@H](C)[C@H](O)[C@@H](C)[C@@H](O)[C@@H](C)[C@H](O)[C@@H]1C` [Compound 118], in the experiment on H. flu, the “MIC H. flu” value stood at 8000 ng/mL (≈ 8950 nM). For the same molecule, the “MIC S. pneumo.” value with S. pneumo. came out at 250 ng/mL (≈ 280 nM). Moreover, the “MIC E. coli” value with E. coli was above 8000 ng/mL. Further, the “MIC E. faecalis” value in the experiment on E. faecalis is above 8000 ng/mL. For the same molecule, the “MIC S. aureus” value against S. aureus was found to be 2000 ng/mL (≈ 2240 nM).

With `CO[C@H]1/C=C/O[C@@]2(C)Oc3c(C)c(O)c4c(=O)c(c5oc6cc(N7CCC(NC(=O)OC(C)(C)C)CC7)cc(O)c6nc-5c4c3C2=O)NC(=O)/C(C)=C\C=C\[C@H](C)[C@H](O)[C@@H](C)[C@@H](O)[C@@H](C)[C@H](OC(C)=O)[C@@H]1C` [Compound 48], the “MIC H. flu” value against H. flu was found to be 1000 ng/mL (≈ 1000 nM). The “MIC S. pneumo.” value in the experiment with S. pneumo. amounted to 0.25 ng/mL (≈ 0.25 nM). Moreover, in the experiment on E. coli, the “MIC E. coli” value is above 8000 ng/mL. In the experiment on E. faecalis, the “MIC E. faecalis” value is 2000 ng/mL (≈ 2000 nM). Besides, the “MIC S. aureus” value against S. aureus is 8 ng/mL (≈ 8.01 nM).

In the case of `CO[C@H]1/C=C/O[C@@]2(C)Oc3c(C)c(O)c4c(=O)c(c5oc6cc(N7CCC(NC(=O)OC(C)(C)C)CC7)cc(O)c6nc-5c4c3C2=O)NC(=O)/C(C)=C\C=C\[C@H](C)[C@H](O)[C@@H](C)[C@@H](O)[C@@H](C)[C@H](O)[C@@H]1C` [Compound 52], the “MIC H. flu” value with H. flu was 120 ng/mL (≈ 125 nM). In the experiment on S. pneumo., the “MIC S. pneumo.” value is 0.25 ng/mL (≈ 0.261 nM). In the experiment with E. coli, the “MIC E. coli” value was above 8000 ng/mL. Besides, in the experiment with E. faecalis, the “MIC E. faecalis” value worked out at 4000 ng/mL (≈ 4180 nM). The “MIC S. aureus” value in the experiment on S. aureus is 15 ng/mL (≈ 15.7 nM).

In the case of `CC[C@@H]1CN(c2cc(O)c3nc4c5c6c7c(C)c(O)c5c(=O)c(c-4oc3c2)NC(=O)/C(C)=C\C=C\[C@H](C)[C@H](O)[C@@H](C)[C@@H](O)[C@@H](C)[C@H](O)[C@H](C)[C@@H](OC)/C=C/O[C@@](C)(O7)C6=O)C[C@H](CC)N1` [Compound 91], the “MIC H. flu” value with H. flu was 250 ng/mL (≈ 278 nM). Further, in the experiment with S. pneumo., the “MIC S. pneumo.” value came to 0.5 ng/mL (≈ 0.556 nM). Besides, in the experiment with E. coli, the “MIC E. coli” value is 4000 ng/mL (≈ 4450 nM). The “MIC E. faecalis” value in the experiment on E. faecalis was determined as 120 ng/mL (≈ 133 nM). The “MIC S. aureus” value in the experiment on S. aureus was 30 ng/mL (≈ 33.4 nM).

On to `CO[C@H]1/C=C/O[C@@]2(C)Oc3c(C)c(O)c4c(=O)c(c5oc6cc(N7CCC(NS(C)(=O)=O)CC7)cc(O)c6nc-5c4c3C2=O)NC(=O)/C(C)=C\C=C\[C@H](C)[C@H](O)[C@@H](C)[C@@H](O)[C@@H](C)[C@H](O)[C@@H]1C` [Compound 27], for which the “MIC H. flu” value in the experiment on H. flu was 120 ng/mL (≈ 128 nM). Moreover, the “MIC S. pneumo.” value in the experiment with S. pneumo. turned out to be 1 ng/mL (≈ 1.07 nM). Also, the “MIC E. coli” value in the experiment on E. coli is above 8000 ng/mL. Also, the “MIC E. faecalis” value in the experiment on E. faecalis is 1000 ng/mL (≈ 1070 nM). For the same molecule, the “MIC S. aureus” value in the experiment with S. aureus is 15 ng/mL (≈ 16 nM).

Consider `CO[C@H]1/C=C/O[C@@]2(C)Oc3c(C)c(O)c4c(=O)c(c5oc6cc(N7CCN(CCN(C)C)CC7)cc(O)c6nc-5c4c3C2=O)NC(=O)/C(C)=C\C=C\[C@H](C)[C@H](O)[C@@H](C)[C@@H](O)[C@@H](C)[C@H](O)[C@@H]1C` [Compound 103], for which the “MIC H. flu” value in the experiment on H. flu amounted to 120 ng/mL (≈ 131 nM). The “MIC S. pneumo.” value against S. pneumo. is 8 ng/mL (≈ 8.75 nM). For the same molecule, the “MIC E. coli” value against E. coli was above 8000 ng/mL. The “MIC E. faecalis” value in the experiment on E. faecalis was 500 ng/mL (≈ 547 nM). Further, the “MIC S. aureus” value against S. aureus is 30 ng/mL (≈ 32.8 nM).
